target: T1, ER (Homo sapiens, UniProt P03372); experiment: ER degradation activity, in-cell western blot analysis in T47D cells; format: cell-based; conditions: 16 hours, Table A does not say which cell line (T47D or MCF7), read-out: Potency (DC50)
T1 construct: host or cells: T47D and MCF7 human breast cancer cells
T1 sequence (P03372 1-595): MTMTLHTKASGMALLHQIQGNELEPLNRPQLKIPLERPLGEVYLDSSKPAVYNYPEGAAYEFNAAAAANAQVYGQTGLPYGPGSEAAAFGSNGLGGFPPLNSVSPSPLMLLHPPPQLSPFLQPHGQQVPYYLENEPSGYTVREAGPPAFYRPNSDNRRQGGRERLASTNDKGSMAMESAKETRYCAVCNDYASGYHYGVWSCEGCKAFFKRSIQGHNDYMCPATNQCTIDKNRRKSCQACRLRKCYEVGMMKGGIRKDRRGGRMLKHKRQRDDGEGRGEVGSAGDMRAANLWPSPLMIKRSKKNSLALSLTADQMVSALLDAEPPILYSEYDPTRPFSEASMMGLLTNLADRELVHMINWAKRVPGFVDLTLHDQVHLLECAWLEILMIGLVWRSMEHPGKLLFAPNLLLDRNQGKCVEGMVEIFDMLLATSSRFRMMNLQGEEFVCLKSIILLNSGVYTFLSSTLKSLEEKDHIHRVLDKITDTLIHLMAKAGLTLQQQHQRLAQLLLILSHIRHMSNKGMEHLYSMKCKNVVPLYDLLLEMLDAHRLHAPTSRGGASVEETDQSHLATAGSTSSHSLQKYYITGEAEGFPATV
Method in brief: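 T47D cells grown in DMEM with 10% FBS were treated with compounds for 16 hours at 0.5% DMSO final. ER was detected by in-cell western using 680/800 near-infrared secondary antibodies. Residual ER is given as percent of untreated and DMSO-treated wells set to 100%.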

DC50 | Compound
0.01 to 0.1 µM | C[C@@H]1Cc2c([nH]c3ccccc23)[C@@H](c2c(F)cc(N3CCC(CN4CCC(N5Cc6cc7c(cc6C5)C(=O)N(C5CCC(=O)NC5=O)C7=O)CC4)CC3)cc2F)N1CC(F)F (stereo partly drawn) [E 51, 6-(1-((1-(4-((1R,3R)-2-(2,2-difluoroethyl)-3-methyl-2,3,4,9-tetrahydro-1H-pyrido[3,4-b]indol-1-yl)-3,5-difluorophenyl)piperidin-4-yl)methyl)piperidin-4-yl)-2-(2,6-dioxopiperidin-3-yl)-6,7-dihydropyrrolo[3,4-f]isoindole-1,3(2H,5H)-dione]
> 0.1 µM | O=C1CCC(N2Cc3cc4c(cc3C2=O)CN(CC2CCN(c3ccc([C@@H]5c6ccc(O)cc6CC[C@@H]5c5ccccc5)cc3)CC2)C4)C(=O)N1 (mixture of isomers) [E 1, Rac-3-(6-((1-(4-((1R,2S)-6-hydroxy-2-phenyl-1,2,3,4-tetrahydronaphthalen-1-yl)phenyl)piperidin-4-yl)methyl)-1-oxo-3,5,6,7-tetrahydropyrrolo[3,4-f]isoindol-2(1H)-yl)piperidine-2,6-dione]
> 0.1 µM | C[C@H]1CC2(CCN(c3ccc([C@@H]4c5ccc(O)cc5CC[C@@H]4c4ccccc4)cc3)CC2)CN1CC(=O)N1Cc2cc3c(cc2C1)C(=O)N(C1CCC(=O)NC1=O)C3=O (mixture of isomers) [E 151, Rac-2-(2,6-dioxopiperidin-3-yl)-6-(2-((S)-8-(4-((1R,2S)-6-hydroxy-2-phenyl-1,2,3,4-tetrahydronaphthalen-1-yl)phenyl)-3-methyl-2,8-diazaspiro[4.5]decan-2-yl)acetyl)-6,7-dihydropyrrolo[3,4-f]isoindole-1,3(2H,5H)-dione]
< 0.01 µM | C[C@@H]1Cc2c([nH]c3ccccc23)[C@@H](c2c(F)cc(N3CCC(C(=O)N4CCC(N5Cc6cc7c(cc6C5)C(=O)N(C5CCC(=O)NC5=O)C7=O)CC4)CC3)cc2F)N1CC(C)(F)F (stereo partly drawn) [E 252, 6-(1-(1-(4-((1R,3R)-2-(2,2-difluoropropyl)-3-methyl-2,3,4,9-tetrahydro-1H-pyrido[3,4-b]indol-1-yl)-3,5-difluorophenyl)piperidine-4-carbonyl)piperidin-4-yl)-2-(2,6-dioxopiperidin-3-yl)-6,7-dihydropyrrolo[3,4-f]isoindole-1,3(2H,5H)-dione]
0.01 to 0.1 µM | O=C1CCC(N2C(=O)c3cc4c(cc3C2=O)CN(CC(=O)N2CCC(N3CC(Oc5ccc([C@@H]6c7ccc(O)cc7CC[C@@H]6c6ccccc6)cc5)C3)CC2)C4)C(=O)N1 (stereo partly drawn) [E 377, 2-(2,6-dioxopiperidin-3-yl)-6-(2-(4-(3-(4-((1R,2S)-6-hydroxy-2-phenyl-1,2,3,4-tetrahydronaphthalen-1-yl)phenoxy)azetidin-1-yl)piperidin-1-yl)-2-oxoethyl)-6,7-dihydropyrrolo[3,4-f]isoindole-1,3(2H,5H)-dione]
> 0.1 µM | O=C1CCC(N2C(=O)c3cc4c(cc3C2=O)CN(CC(=O)N2CC3(CCC(Oc5ccc([C@@H]6c7ccc(O)cc7CC[C@@H]6c6ccccc6)cc5)CC3)C2)C4)C(=O)N1 (stereo partly drawn) [E 223, 2-(2,6-dioxopiperidin-3-yl)-6-(2-(7-(4-((1R,2S)-6-hydroxy-2-phenyl-1,2,3,4-tetrahydronaphthalen-1-yl)phenoxy)-2-azaspiro[3.5]nonan-2-yl)-2-oxoethyl)-6,7-dihydropyrrolo[3,4-f]isoindole-1,3(2H,5H)-dione]
> 0.1 µM | C[C@@H]1Cc2c([nH]c3ccccc23)[C@@H](c2c(F)cc(N3CC(C(=O)N4CCC(CN5Cc6cc7c(cc6C5)C(=O)N(C5CCC(=O)NC5=O)C7=O)CC4)C3)cc2F)N1CC(F)F (stereo partly drawn) [E 237, 6-((1-(1-(4-((1R,3R)-2-(2,2-difluoroethyl)-3-methyl-2,3,4,9-tetrahydro-1H-pyrido[3,4-b]indol-1-yl)-3,5-difluorophenyl)azetidine-3-carbonyl)piperidin-4-yl)methyl)-2-(2,6-dioxopiperidin-3-yl)-6,7-dihydropyrrolo[3,4-f]isoindole-1,3(2H,5H)-dione]
> 0.1 µM | C[C@@H]1Cc2cc(O)ccc2[C@@H](c2c(F)cc(N3CCC(C(=O)N4CCC(N5Cc6cc7c(cc6C5)C(=O)N(C5CCC(=O)NC5=O)C7=O)CC4)CC3)cc2F)N1CC(F)F (stereo partly drawn) [E 269, 6-(1-(1-(4-((1S,3R)-2-(2,2-difluoroethyl)-6-hydroxy-3-methyl-1,2,3,4-tetrahydroisoquinolin-1-yl)-3,5-difluorophenyl)piperidine-4-carbonyl)piperidin-4-yl)-2-(2,6-dioxopiperidin-3-yl)-6,7-dihydropyrrolo[3,4-f]isoindole-1,3(2H,5H)-dione]
> 0.1 µM | O=C1CCC(N2C(=O)c3cc4c(cc3C2=O)CN(C2CCC(NC3CCN(c5ccc([C@@H]6c7ccc(O)cc7CC[C@@H]6c6ccccc6)cc5)CC3)CC2)C4)C(=O)N1 (stereo partly drawn) [E 303, 2-(2,6-dioxopiperidin-3-yl)-6-(4-((1-(4-((1R,2S)-6-hydroxy-2-phenyl-1,2,3,4-tetrahydronaphthalen-1-yl)phenyl)piperidin-4-yl)amino)cyclohexyl)-6,7-dihydropyrrolo[3,4-f]isoindole-1,3(2H,5H)-dione]
> 0.1 µM | C[C@@H]1Cc2c([nH]c3ccccc23)[C@@H](c2ccc(C3CCC(C(=O)N4CCC(N5Cc6cc7c(cc6C5)C(=O)N(C5CCC(=O)NC5=O)C7=O)CC4)CC3)nc2)N1CC(F)F (stereo partly drawn) [E 319, 6-(1-(4-(5-((1R,3R)-2-(2,2-difluoroethyl)-3-methyl-2,3,4,9-tetrahydro-1H-pyrido[3,4-b]indol-1-yl)pyridin-2-yl)cyclohexane-1-carbonyl)piperidin-4-yl)-2-(2,6-dioxopiperidin-3-yl)-6,7-dihydropyrrolo[3,4-f]isoindole-1,3(2H,5H)-dione]
0.01 to 0.1 µM | O=C1CCC(N2C(=O)c3cc4c(cc3C2=O)CN(C(=O)CN2CC3(C2)CN(c2ccc(C5=C(c6ccc(F)cc6)CCCc6cc(O)ccc65)cc2)C3)C4)C(=O)N1 (stereo not shown) [E 49, 2-(2,6-dioxopiperidin-3-yl)-6-(2-(6-(4-(8-(4-fluorophenyl)-3-hydroxy-6,7-dihydro-5H-benzo[7]annulen-9-yl)phenyl)-2,6-diazaspiro[3.3]heptan-2-yl)acetyl)-6,7-dihydropyrrolo[3,4-f]isoindole-1,3(2H,5H)-dione]
< 0.01 µM | C[C@@H]1Cc2cc(O)ccc2[C@@H](c2c(F)cc(N3CC4(CCN(CC(=O)N5Cc6cc7c(cc6C5)C(=O)N(C5CCC(=O)NC5=O)C7)C4)C3)cc2F)N1CC(F)F (stereo partly drawn) [E 40, 3-(6-(2-(2-(4-((1S,3R)-2-(2,2-difluoroethyl)-6-hydroxy-3-methyl-1,2,3,4-tetrahydroisoquinolin-1-yl)-3,5-difluorophenyl)-2,6-diazaspiro[3.4]octan-6-yl)acetyl)-1-oxo-3,5,6,7-tetrahydropyrrolo[3,4-f]isoindol-2(1H)-yl)piperidine-2,6-dione]
0.01 to 0.1 µM | CCC(=C(c1ccc(O)cc1)c1ccc(N2CCC3(CCN(C(=O)CN4Cc5cc6c(cc5C4)C(=O)N(C4CCC(=O)NC4=O)C6=O)CC3)C2)cc1)c1ccccc1 (stereo not shown) [E 189, 2-(2,6-dioxopiperidin-3-yl)-6-(2-(2-(4-(1-(4-hydroxyphenyl)-2-phenylbut-1-en-1-yl)phenyl)-2,8-diazaspiro[4.5]decan-8-yl)-2-oxoethyl)-6,7-dihydropyrrolo[3,4-f]isoindole-1,3(2H,5H)-dione]

same assay, conditions: compounds 16 hours, Table A does not say whether T47D or MCF7, read-out: Potency (DC50)

DC50 | Compound
0.01 to 0.1 µM | COc1cc([C@H]2CC[C@H](C(=O)N3CCC(N4Cc5cc6c(cc5C4)C(=O)N(C4CCC(=O)NC4=O)C6=O)CC3)CC2)ccc1[C@@H]1c2[nH]c3ccccc3c2C[C@@H](C)N1CC(F)F (stereo partly drawn) [E 403, 6-(1-((1R,4r)-4-(4-((1R,3R)-2-(2,2-difluoroethyl)-3-methyl-2,3,4,9-tetrahydro-1H-pyrido[3,4-b]indol-1-yl)-3-methoxyphenyl)cyclohexane-1-carbonyl)piperidin-4-yl)-2-(2,6-dioxopiperidin-3-yl)-6,7-dihydropyrrolo[3,4-f]isoindole-1,3(2H,5H)-dione]
> 0.1 µM | C[C@@H]1Cc2c([nH]c3ccccc23)[C@@H](c2ccc(C3=CCC4(CC3)CCN(C(=O)CN3Cc5cc6c(cc5C3)C(=O)N(C3CCC(=O)NC3=O)C6=O)CC4)cc2)N1CC(F)F (stereo partly drawn) [E 478, 6-(2-(9-(4-((1R,3R)-2-(2,2-difluoroethyl)-3-methyl-2,3,4,9-tetrahydro-1H-pyrido[3,4-b]indol-1-yl)phenyl)-3-azaspiro[5.5]undec-8-en-3-yl)-2-oxoethyl)-2-(2,6-dioxopiperidin-3-yl)-6,7-dihydropyrrolo[3,4-f]isoindole-1,3(2H,5H)-dione]
0.01 to 0.1 µM | C[C@@H]1Cc2c([nH]c3ccccc23)[C@@H](c2cnc(N3CC4(CCC(CN5Cc6cc7c(cc6C5)C(=O)N(C5CCC(=O)NC5=O)C7=O)CC4)C3)nc2)N1CC(F)F (stereo partly drawn) [E 472, 6-((2-(5-((1R,3R)-2-(2,2-difluoroethyl)-3-methyl-2,3,4,9-tetrahydro-1H-pyrido[3,4-b]indol-1-yl)pyrimidin-2-yl)-2-azaspiro[3.5]nonan-7-yl)methyl)-2-(2,6-dioxopiperidin-3-yl)-6,7-dihydropyrrolo[3,4-f]isoindole-1,3(2H,5H)-dione]

Source: patent publication US20240190880A1 (THE REGENTS OF THE UNIVERSITY OF MICHIGAN, priority 2021, published 2024)
